Test: Hygroscopicity assessment by dynamic vapor sorption (DVS)
Format: physicochemical
Conditions: 25° C.; for weight gain under 80% RH: DVS, 10 mg sample
Protocol: Dynamic Vapor Sorption (DVS) was measured via a SMS (Surface Measurement Systems) DVS Intrinsic. Typical Parameters for DVS test are listed below. Temperature: 25° C. Gas and flow rate: N2, 200 mL/min dm/dt: 0.002%/min RH range: 0% RH to 95% RH 10 mg of crystalline Form I of the present disclosure was tested using dynamic vapor sorption (DVS). 4. The DVS isotherm plot of crystalline Form I is depicted in FIG. 4. About hygroscopicity characterization description and definition of hygroscopicity (Chinese Pharmacopoeia 2010 edition appendix XIX J Drug hygroscopic test guidelines, test at 25° C.±1° C., 80% Relative Humidity) • deliquescent: sufficient water is absorbed to form a liquid; • very hygroscopic: increase in mass is equal to or greater than 15 percent; • hygroscopic: increase in mass is less than 15 percent and equal to or greater than 2 percent; • slightly hygroscopic: increase in mass is less than 2 percent and equal to or greater than 0.2 percent. • no or almost no hygroscopic: increase in mass is less than 0.2 percent

Compound: CCOC(=O)[C@H](C)C[C@@H](Cc1ccc(-c2ccccc2)cc1)NC(=O)CCC(=O)O [Crystalline Form I of AHU377, (2R,4S)-5-(Biphenyl-4-yl)-4-[(3-carboxypropionyl)amino]-2-methylpentanoic acid ethyl ester]
- hygroscopicity (class according to hygroscopic test guidelines) (Chinese Pharmacopoeia 2010 appendix XIX J, 80% Relative Humidity): slightly hygroscopic (increase in mass is less than 2 percent and equal to or greater than 0.2 percent)
- weight gain under 80% RH: 0.35%
- weight gain under 80% RH (listed as crystalline Form I): 0.35%

— patent US10233144B2, “Crystalline form of AHU377, preparation method and use thereof” (CRYSTAL PHARMATECH CO., LTD., priority 2015, dated 2019)
